In patent US12692269B2, “Therapeutic compounds” (Genentech, Inc., priority 2019, dated 2026):

Key:
Type in all cases: binding
[1] = molecular target: TEAD4 TAZ (amino acids 13-57) (Homo sapiens, UniProt Q15561); experiment: TEAD4-TAZ HTRF (TR-FRET) protein-protein interaction assay; settings: for TEAD4 TAZ HTRF combined: Max % Inhibition: TEAD4, TAZ peptide; for EC50: TEAD4-TAZ HTRF, TR-FRET 665 nm/615 nm, read-out: TEAD4 TAZ HTRF combined: EC50
Outline: (§1)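 His-tagged TEAD YAP-binding domain (aa 217-447) pre-bound to Eu anti-His tracer, incubated with compound 30 min, then biotinylated YAP (aa 50-100) or TAZ (aa 13-57) peptide with streptavidin-XL665 added for 60 min at room temperature. TR-FRET read at 665/615 nm; IC50 or EC50 from four-parameter fit.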

[2] = molecular target: TEAD2 TAZ (amino acids 13-57) (Homo sapiens, UniProt Q15562); experiment: TEAD2-TAZ HTRF (TR-FRET) protein-protein interaction assay; settings: for TEAD2 TAZ HTRF combined: Max % Inhibition: TEAD2, TAZ peptide; for EC50: TEAD2-TAZ HTRF, TR-FRET 665 nm/615 nm, read-out: TEAD2 TAZ HTRF combined: EC50
TEAD2 TAZ (amino acids 13-57), sequence (Q15562 217-447): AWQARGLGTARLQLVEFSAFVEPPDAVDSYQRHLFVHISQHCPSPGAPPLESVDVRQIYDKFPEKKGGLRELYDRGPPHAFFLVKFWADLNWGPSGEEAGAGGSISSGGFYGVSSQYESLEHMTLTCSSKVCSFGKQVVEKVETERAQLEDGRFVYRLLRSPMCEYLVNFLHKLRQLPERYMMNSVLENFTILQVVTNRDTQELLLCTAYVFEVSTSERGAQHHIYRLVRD
Outline: as §1

TEAD1 YAP50-100 = TEAD1 YAP50-100 (Homo sapiens, UniProt P28347); experiment: TEAD1-YAP HTRF (TR-FRET) protein-protein interaction assay; settings: TEAD1, YAP peptide 50-100, HTRF; for EC50: read-out: TEAD1 YAP50-100 HTRF combined: EC50
TEAD1 YAP50-100, sequence (P28347 167-426 limits assumed): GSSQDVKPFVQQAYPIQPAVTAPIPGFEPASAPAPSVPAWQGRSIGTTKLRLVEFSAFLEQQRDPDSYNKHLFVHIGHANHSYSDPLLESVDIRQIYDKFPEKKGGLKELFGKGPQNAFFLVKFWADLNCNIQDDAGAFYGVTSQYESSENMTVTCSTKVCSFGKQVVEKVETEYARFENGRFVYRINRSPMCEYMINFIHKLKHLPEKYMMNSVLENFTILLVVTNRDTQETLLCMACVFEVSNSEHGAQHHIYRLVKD
Outline: as §1

[3] = molecular target: TEAD1 TAZ (amino acids 13-57) (Homo sapiens, UniProt P28347); experiment: TEAD1-TAZ HTRF (TR-FRET) protein-protein interaction assay; settings: for TEAD1 TAZ HTRF combined: Max % Inhibition: TEAD1, TAZ peptide; for EC50: TEAD1-TAZ HTRF, TR-FRET 665 nm/615 nm, read-out: TEAD1 TAZ HTRF combined: EC50
TEAD1 TAZ (amino acids 13-57), sequence (P28347 167-426 limits assumed): as above
Outline: as §1

[4] = molecular target: TEAD3 TAZ (amino acids 13-57) (Homo sapiens, UniProt Q99594); experiment: TEAD3-TAZ HTRF (TR-FRET) protein-protein interaction assay; settings: for TEAD3 TAZ HTRF combined: Max % Inhibition: TEAD3, TAZ peptide; for EC50: TEAD3-TAZ HTRF, TR-FRET 665 nm/615 nm, read-out: TEAD3 TAZ HTRF combined: EC50
TEAD3 TAZ (amino acids 13-57), sequence (Q99594 173-435 limits assumed): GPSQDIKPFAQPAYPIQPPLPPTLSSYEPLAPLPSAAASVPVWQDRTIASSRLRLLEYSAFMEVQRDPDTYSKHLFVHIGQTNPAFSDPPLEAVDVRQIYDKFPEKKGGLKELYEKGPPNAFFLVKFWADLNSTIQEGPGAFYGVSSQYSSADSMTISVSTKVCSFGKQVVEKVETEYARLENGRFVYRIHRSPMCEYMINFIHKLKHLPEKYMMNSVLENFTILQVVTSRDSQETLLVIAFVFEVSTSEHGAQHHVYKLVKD
Outline: as §1

TEAD4 YAP50-100 = TEAD4 YAP50-100 (Homo sapiens, UniProt Q15561); experiment: TEAD4-YAP HTRF (TR-FRET) protein-protein interaction assay; settings: TEAD4, YAP peptide 50-100, HTRF; for EC50: read-out: TEAD4 YAP50-100 HTRF combined: EC50
TEAD4 YAP50-100, sequence (Q15561 217-434 limits assumed): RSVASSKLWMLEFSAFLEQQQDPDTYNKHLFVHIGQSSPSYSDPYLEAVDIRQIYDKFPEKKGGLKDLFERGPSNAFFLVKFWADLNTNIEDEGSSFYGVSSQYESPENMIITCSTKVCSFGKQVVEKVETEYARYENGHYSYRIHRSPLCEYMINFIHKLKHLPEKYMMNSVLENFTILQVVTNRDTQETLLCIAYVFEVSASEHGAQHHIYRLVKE
Outline: as §1

TEAD3 YAP50-100 = TEAD3 YAP50-100 (Homo sapiens, UniProt Q99594); experiment: TEAD3-YAP HTRF (TR-FRET) protein-protein interaction assay; settings: TEAD3, YAP peptide 50-100, HTRF; for EC50: read-out: TEAD3 YAP50-100 HTRF combined: EC50
TEAD3 YAP50-100, sequence (Q99594 173-435 limits assumed): as the sequence (Q99594 173-435 limits assumed) above
Outline: as §1

TEAD2 YAP50-100 = TEAD2 YAP50-100 (Homo sapiens, UniProt Q15562); experiment: TEAD2-YAP HTRF (TR-FRET) protein-protein interaction assay; settings: TEAD2, YAP peptide 50-100, HTRF; for EC50: read-out: TEAD2 YAP50-100 HTRF combined: EC50
TEAD2 YAP50-100, sequence (Q15562 217-447): as the sequence (Q15562 217-447) above
Outline: as §1

TEAD4 TAZ (amino acids 13-57), sequence (Q15561 217-434 limits assumed): as the sequence (Q15561 217-434 limits assumed) above

| Structure (SMILES) | TEAD4 TAZ HTRF combined: Max % Inhibition [1] | EC50 [1] | TEAD2 TAZ HTRF combined: Max % Inhibition [2] | EC50 [2] | TEAD1 YAP50-100 HTRF combined: Max % Inhibition (TEAD1 YAP50-100) | EC50 (TEAD1 YAP50-100) | TEAD1 TAZ HTRF combined: Max % Inhibition [3] | EC50 [3] | TEAD3 TAZ HTRF combined: Max % Inhibition [4] | EC50 [4] | TEAD4 YAP50-100 HTRF combined: Max % Inhibition (TEAD4 YAP50-100) | EC50 (TEAD4 YAP50-100) | TEAD3 YAP50-100 HTRF combined: Max % Inhibition (TEAD3 YAP50-100) | EC50 (TEAD3 YAP50-100) | TEAD2 YAP50-100 HTRF combined: Max % Inhibition (TEAD2 YAP50-100) | EC50 (TEAD2 YAP50-100) |
| --- | --- | --- | --- | --- | --- | --- | --- | --- | --- | --- | --- | --- | --- | --- | --- | --- |
| O=C(c1c(-c2ncccn2)nn2c(=O)cc(-c3ccc(C4CCCCC4)c(F)c3)[nH]c12)N1CC(CF)C1 [Compound 22, 5-(4-Cyclohexyl-3-fluorophenyl)-3-(3-(fluoromethyl)azetidine-1-carbonyl)-2-(pyrimidin-2-yl)pyrazolo[1,5-a]pyrimidin-7(4H)-one] | 48.0% | 0.06 µM | 57.5% | 0.02 µM | 69.0% | 0.14 µM | 64.0% | 0.11 µM | 57.0% | 0.21 µM | 45.5% | 0.07 µM | 60.0% | 0.21 µM | 58.0% | 0.02 µM |
| O=C(c1c(-c2cnccn2)nn2c(=O)cc(-c3ccc(C4CCCCC4)c(F)c3)[nH]c12)N1CC(CF)C1 [Compound 23, 5-(4-Cyclohexyl-3-fluorophenyl)-3-(3-(fluoromethyl)azetidine-1-carbonyl)-2-(pyrazin-2-yl)pyrazolo[1,5-a]pyrimidin-7(4H)-one] | 35.0% | 0.05 µM | 55.5% | 0.01 µM | 70.0% | 0.04 µM | 61.5% | 0.07 µM | 56.5% | 0.11 µM | 39.5% | 0.05 µM | 64.0% | 0.11 µM | 55.5% | 0.01 µM |
| O=C(c1c(-c2ncccn2)nn2c(=O)cc(-c3ccc(CC4CCCC4)cc3)[nH]c12)N1CC(CF)C1 [Compound 24, 5-(4-(Cyclopentylmethyl)phenyl)-3-(3-(fluoromethyl)azetidine-1-carbonyl)-2-(pyrimidin-2-yl) pyrazolo[1,5-a]pyrimidin-7(4H)-one] | 54.0% | 0.01 µM | 66.5% |  | 63.0% | 0.02 µM | 57.0% | 0.02 µM | 43.0% | 0.03 µM | 51.0% | 0.01 µM | 52.0% | 0.02 µM | 66.0% |  |
| O=C(c1c(-c2cnccn2)nn2c(=O)cc(-c3ccc(CC4CCCC4)cc3)[nH]c12)N1CC(CF)C1 [Compound 25, 5-(4-(Cyclopentylmethyl)phenyl)-3-(3-(fluoromethyl)azetidine-1-carbonyl)-2-(pyrazin-2-yl)pyrazolo[1,5-a]pyrimidin-7(4H)-one] | 47.0% | 0.02 µM | 62.0% | 0.01 µM | 60.0% | 0.03 µM | 52.0% | 0.04 µM | 44.0% | 0.04 µM | 45.5% | 0.02 µM | 50.0% | 0.04 µM | 63.5% | 0.01 µM |
